This is an account of results in patent US11154565B2, “Process for preparing a stable emulsion comprising one or more avermectins” (GALDERMA HOLDING SA, priority 2015, dated 2021).

The nature of the data set: Chemical stability of ivermectin in the composition on storage. The class given is physicochemical. The note with it: composition obtained according to the invention.

On to ivermectin, for which the “chemical stability of ivermectin” value was “chemically stable” (stored for 6 months at 40° C.) and “chemically stable” (stored for 12 months at room temperature).
